Results reported in PubChem BioAssay AID1963839 (Molecular Pharmacology Branch, DTP, NCI, 2024).

System: 817829-284-R-J1-PDC complex spheroid viability
Test: Anticancer human tumor 817829-284-R-J1-PDC patient-derived colon adenocarcinoma cell line growth inhibition [POLQ]
Conditions: for IC50: curve of first compound; for viability, T/C: stronger effect = lower value
How it was run: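 PDC + HUVEC + MSC complex spheroids; POLQ inhibitors ± partner drugs; top conc. at/near clinical Cmax, else 10 microM (SN-38 1 microM), half-log dilutions; 37 degrees C, 5% CO2.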

[1] = second compound 0.0316 µM, first compound 0.0316 µM
[2] = second compound 0.0316 µM, first compound 0.1 µM
[3] = second compound 0.0316 µM, first compound 0.316 µM
[4] = second compound 0.0316 µM, first compound 1 µM
[5] = second compound 0.0316 µM, first compound 3.16 µM
[6] = second compound 0.0316 µM, first compound 10 µM
[7] = second compound 0.1 µM, first compound 0.0316 µM
[8] = second compound 0.1 µM, first compound 0.1 µM
[9] = second compound 0.1 µM, first compound 0.316 µM
[10] = second compound 0.1 µM, first compound 1 µM
[11] = second compound 0.1 µM, first compound 3.16 µM
[12] = second compound 0.1 µM, first compound 10 µM
[13] = second compound 0.316 µM, first compound 0.0316 µM
[14] = second compound 0.316 µM, first compound 0.1 µM
[15] = second compound 0.316 µM, first compound 0.316 µM
[16] = second compound 0.316 µM, first compound 1 µM
[17] = second compound 0.316 µM, first compound 3.16 µM
[18] = second compound 0.316 µM, first compound 10 µM
[19] = second compound 1 µM, first compound 0.0316 µM
[20] = second compound 1 µM, first compound 0.1 µM
[21] = second compound 1 µM, first compound 0.316 µM
[22] = second compound 1 µM, first compound 1 µM
[23] = second compound 1 µM, first compound 3.16 µM
[24] = second compound 1 µM, first compound 10 µM
[25] = second compound 3.16 µM, first compound 0.0316 µM
[26] = second compound 3.16 µM, first compound 0.1 µM
[27] = second compound 3.16 µM, first compound 0.316 µM
[28] = second compound 3.16 µM, first compound 1 µM
[29] = second compound 3.16 µM, first compound 3.16 µM
[30] = second compound 3.16 µM, first compound 10 µM
[31] = second compound 10 µM, first compound 0.0316 µM
[32] = second compound 10 µM, first compound 0.1 µM
[33] = second compound 10 µM, first compound 0.316 µM
[34] = second compound 10 µM, first compound 1 µM
[35] = second compound 10 µM, first compound 3.16 µM
[36] = second compound 10 µM, first compound 10 µM
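Further: spheroids exposed to compounds for 7 days.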
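Wherever viability, T/C is given: 100% = DMSO vehicle-treated spheroids.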

## COc1ccc([C@@H](O)c2cc(-c3ncnc4cc(N5CCOCC5)ccc34)c(F)cc2Cl)nn1 + Cc1cccc(N(C)C(=O)C2C(O)CCN2c2nc(C)cc(C(F)(F)F)c2C#N)c1
Second compound 0.0316 µM
  IC50: 715 nM
Second compound 0.1 µM
  IC50: 719 nM
Second compound 0.316 µM
  IC50: 932 nM
Second compound 1 µM
  IC50: 1220 nM
Second compound 3.16 µM
  IC50: 474 nM
Second compound 10 µM
  IC50: 751 nM
[1]
  viability, T/C: 112%
[2]
  viability, T/C: 112%
[3]
  viability, T/C: 72%
[4]
  viability, T/C: 42.3%
[5]
  viability, T/C: 22.3%
[6]
  viability, T/C: 17.9%
[7]
  viability, T/C: 103%
[8]
  viability, T/C: 80.3%
[9]
  viability, T/C: 66.9%
[10]
  viability, T/C: 40.8%
[11]
  viability, T/C: 32.7%
[12]
  viability, T/C: 19.9%
[13]
  viability, T/C: 107%
[14]
  viability, T/C: 74.6%
[15]
  viability, T/C: 102%
[16]
  viability, T/C: 47.1%
[17]
  viability, T/C: 28.3%
[18]
  viability, T/C: 15.5%
[19]
  viability, T/C: 111%
[20]
  viability, T/C: 105%
[21]
  viability, T/C: 92.2%
[22]
  viability, T/C: 54.5%
[23]
  viability, T/C: 28.1%
[24]
  viability, T/C: 21.9%
[25]
  viability, T/C: 98.6%
[26]
  viability, T/C: 130%
[27]
  viability, T/C: 62%
[28]
  viability, T/C: 38.3%
[29]
  viability, T/C: 27%
[30]
  viability, T/C: 18.6%
[31]
  viability, T/C: 92%
[32]
  viability, T/C: 81%
[33]
  viability, T/C: 70.8%
[34]
  viability, T/C: 41.4%
[35]
  viability, T/C: 26.3%
[36]
  viability, T/C: 13.5%

## C=CCn1c(=O)c2cnc(Nc3ccc(N4CCN(C)CC4)cc3)nc2n1-c1cccc(C(C)(C)O)n1 + COC1C(OC(N)=O)C(O)C(Oc2ccc3c(O)c(NC(=O)c4ccc(O)c(CC=C(C)C)c4)c(=O)oc3c2C)OC1(C)C
Second compound 0.0316 µM
  IC50: 161 nM
Second compound 0.1 µM
  IC50: 144 nM
Second compound 0.316 µM
  IC50: 176 nM
Second compound 1 µM
  IC50: 190 nM
Second compound 3.16 µM
  IC50: 176 nM
Second compound 10 µM
  IC50: 133 nM
Second compound 0.0316 µM, first compound 0.00316 µM
  viability, T/C: 93%
Second compound 0.0316 µM, first compound 0.01 µM
  viability, T/C: 74.8%
[1]
  viability, T/C: 91.3%
[2]
  viability, T/C: 58%
[3]
  viability, T/C: 33.6%
[4]
  viability, T/C: 7.07%
Second compound 0.1 µM, first compound 0.00316 µM
  viability, T/C: 107%
Second compound 0.1 µM, first compound 0.01 µM
  viability, T/C: 91.4%
[7]
  viability, T/C: 87.2%
[8]
  viability, T/C: 55.5%
[9]
  viability, T/C: 32.3%
[10]
  viability, T/C: 6.47%
Second compound 0.316 µM, first compound 0.00316 µM
  viability, T/C: 100%
Second compound 0.316 µM, first compound 0.01 µM
  viability, T/C: 96.8%
[13]
  viability, T/C: 96.6%
[14]
  viability, T/C: 72%
[15]
  viability, T/C: 26.7%
[16]
  viability, T/C: 6%
Second compound 1 µM, first compound 0.00316 µM
  viability, T/C: 82.8%
Second compound 1 µM, first compound 0.01 µM
  viability, T/C: 95.9%
[19]
  viability, T/C: 110%
[20]
  viability, T/C: 70.6%
[21]
  viability, T/C: 32.2%
[22]
  viability, T/C: 7.21%
Second compound 3.16 µM, first compound 0.00316 µM
  viability, T/C: 109%
Second compound 3.16 µM, first compound 0.01 µM
  viability, T/C: 107%
[25]
  viability, T/C: 83%
[26]
  viability, T/C: 69.7%
[27]
  viability, T/C: 32.2%
[28]
  viability, T/C: 7.29%
Second compound 10 µM, first compound 0.00316 µM
  viability, T/C: 67.5%
Second compound 10 µM, first compound 0.01 µM
  viability, T/C: 96.1%
[31]
  viability, T/C: 69.7%
[32]
  viability, T/C: 55.2%
[33]
  viability, T/C: 30.8%
[34]
  viability, T/C: 8.11%

## CCc1cc2c(N3CCc4c(cc(Cn5ccnc5)cc4-c4cn(C)nc4C(F)(F)F)C3=O)cc(C)nc2c(OC)n1 + COC1C(OC(N)=O)C(O)C(Oc2ccc3c(O)c(NC(=O)c4ccc(O)c(CC=C(C)C)c4)c(=O)oc3c2C)OC1(C)C
Second compound 0.0316 µM
  IC50: 3100 nM
Second compound 0.1 µM
  IC50: 1720 nM
Second compound 0.316 µM
  IC50: 1950 nM
Second compound 1 µM
  IC50: 1400 nM
Second compound 3.16 µM
  IC50: 3380 nM
Second compound 10 µM
  IC50: 2300 nM
[1]
  viability, T/C: 82.7%
[2]
  viability, T/C: 82.2%
[3]
  viability, T/C: 77.6%
[4]
  viability, T/C: 61.9%
[5]
  viability, T/C: 51.9%
[6]
  viability, T/C: 27.7%
[7]
  viability, T/C: 115%
[8]
  viability, T/C: 86.8%
[9]
  viability, T/C: 68.5%
[10]
  viability, T/C: 55.6%
[11]
  viability, T/C: 47.9%
[12]
  viability, T/C: 34.2%
[13]
  viability, T/C: 76.8%
[14]
  viability, T/C: 81.9%
[15]
  viability, T/C: 68.4%
[16]
  viability, T/C: 61.7%
[17]
  viability, T/C: 41.7%
[18]
  viability, T/C: 35.8%
[19]
  viability, T/C: 95.6%
[20]
  viability, T/C: 86.8%
[21]
  viability, T/C: 78%
[22]
  viability, T/C: 52%
[23]
  viability, T/C: 41.9%
[24]
  viability, T/C: 34.7%
[25]
  viability, T/C: 87.5%
[26]
  viability, T/C: 74.2%
[27]
  viability, T/C: 75.3%
[28]
  viability, T/C: 58.1%
[29]
  viability, T/C: 58.3%
[30]
  viability, T/C: 31.4%
[31]
  viability, T/C: 81.2%
[32]
  viability, T/C: 85.3%
[33]
  viability, T/C: 82.6%
[34]
  viability, T/C: 65.6%
[35]
  viability, T/C: 44.5%
[36]
  viability, T/C: 31.7%

## CCc1cc2c(N3CCc4c(cc(Cn5ccnc5)cc4-c4cn(C)nc4C(F)(F)F)C3=O)cc(C)nc2c(OC)n1 + Nc1ccc(C#CCN(C(=O)Cc2ncc(C(F)(F)F)cc2C(F)(F)F)c2ccc(F)cc2)nn1
Second compound 0.0316 µM
  IC50: 1750 nM
Second compound 0.1 µM
  IC50: 2070 nM
Second compound 0.316 µM
  IC50: 1650 nM
Second compound 1 µM
  IC50: 2190 nM
Second compound 3.16 µM
  IC50: 973 nM
Second compound 10 µM
  IC50: 963 nM
[1]
  viability, T/C: 85.5%
[2]
  viability, T/C: 73.8%
[3]
  viability, T/C: 67.8%
[4]
  viability, T/C: 56.1%
[5]
  viability, T/C: 43.7%
[6]
  viability, T/C: 31.4%
[7]
  viability, T/C: 101%
[8]
  viability, T/C: 80.5%
[9]
  viability, T/C: 71.9%
[10]
  viability, T/C: 62.2%
[11]
  viability, T/C: 46.7%
[12]
  viability, T/C: 26.7%
[13]
  viability, T/C: 92.9%
[14]
  viability, T/C: 80.3%
[15]
  viability, T/C: 71.7%
[16]
  viability, T/C: 57.1%
[17]
  viability, T/C: 40.4%
[18]
  viability, T/C: 30%
[19]
  viability, T/C: 87%
[20]
  viability, T/C: 66.3%
[21]
  viability, T/C: 72.4%
[22]
  viability, T/C: 82.6%
[23]
  viability, T/C: 37.3%
[24]
  viability, T/C: 23%
[25]
  viability, T/C: 98%
[26]
  viability, T/C: 76.7%
[27]
  viability, T/C: 65.5%
[28]
  viability, T/C: 49%
[29]
  viability, T/C: 37.8%
[30]
  viability, T/C: 29.1%
[31]
  viability, T/C: 101%
[32]
  viability, T/C: 71.3%
[33]
  viability, T/C: 68.5%
[34]
  viability, T/C: 50.2%
[35]
  viability, T/C: 38.3%
[36]
  viability, T/C: 30.4%
